Assay: Colorimetric (Ehrlich's reagent) detection of kynurenine-like molecules; thermal forced degradation / storage
Format: physicochemical
From the text: The quantitation of kynurenine-like species in […] was detected using a modified method by Meyer et al. (“Suitability of recombinant Escherichia coli and Pseudomonas putida strains for selective biotransformation of m-nitrotoluene by xylene monooxygenase”, Appl Environ Microbiol 71 (2005) 6624-6632). The method is based on the reaction of p-dimethylamino-benzaldehyde (DMAB or Ehrlich's reagent) with primary aromatic amines to form yellow imines in acidic conditions. Briefly, […], […] or kynurenine standard (0-800 μM in 0.9% saline) was combined in triplicate with 100 μL Ehrlich's reagent in a 96-well plate. The plate was read at 492 nm using a SpectraMax M2 plate reader (Molecular Devices, Sunnyvale, Calif., USA). […] […] was incubated at ambient temperature or 80° C. for 6 days. Aliquots were collected at 0, 1, 2, 3, or 6 days and analyzed in triplicate for kynurenine-like molecules using the colorimetric assay described in Section 2.3. Also, 4 mM N-acetyl tryptophan in 0.9% saline was incubated at 80° C. for 6 days.

SMILES: CC(=O)N[C@@H](Cc1c[nH]c2ccccc12)C(=O)O [NAT, N-acetyl tryptophan]
- concentration of kynurenine-like molecules (4 mM in 0.9% saline heated at 80° C. for 6 days): 11.6 µM
- levels of kynurenine-like molecules (4 mM in 0.9% saline, t=0): undetectable
